Assay results reported in ChEMBL document CHEMBL3638769, “Inhibitors of STAT3” (2015).

Each molecule was assayed against Signal transducer and activator of transcription 3 (Homo sapiens, UniProt P40763) (assay: EMSA Based Assay: A screening process evaluated in vitro disruption of STAT3(dimer)-DNA formation through a previously published EMSA based assays, giving a valuable insight into the inhibitor's mode of action against the STAT3 homo-dimer.).
Signal transducer and activator of transcription 3, sequence (P40763 whole entry): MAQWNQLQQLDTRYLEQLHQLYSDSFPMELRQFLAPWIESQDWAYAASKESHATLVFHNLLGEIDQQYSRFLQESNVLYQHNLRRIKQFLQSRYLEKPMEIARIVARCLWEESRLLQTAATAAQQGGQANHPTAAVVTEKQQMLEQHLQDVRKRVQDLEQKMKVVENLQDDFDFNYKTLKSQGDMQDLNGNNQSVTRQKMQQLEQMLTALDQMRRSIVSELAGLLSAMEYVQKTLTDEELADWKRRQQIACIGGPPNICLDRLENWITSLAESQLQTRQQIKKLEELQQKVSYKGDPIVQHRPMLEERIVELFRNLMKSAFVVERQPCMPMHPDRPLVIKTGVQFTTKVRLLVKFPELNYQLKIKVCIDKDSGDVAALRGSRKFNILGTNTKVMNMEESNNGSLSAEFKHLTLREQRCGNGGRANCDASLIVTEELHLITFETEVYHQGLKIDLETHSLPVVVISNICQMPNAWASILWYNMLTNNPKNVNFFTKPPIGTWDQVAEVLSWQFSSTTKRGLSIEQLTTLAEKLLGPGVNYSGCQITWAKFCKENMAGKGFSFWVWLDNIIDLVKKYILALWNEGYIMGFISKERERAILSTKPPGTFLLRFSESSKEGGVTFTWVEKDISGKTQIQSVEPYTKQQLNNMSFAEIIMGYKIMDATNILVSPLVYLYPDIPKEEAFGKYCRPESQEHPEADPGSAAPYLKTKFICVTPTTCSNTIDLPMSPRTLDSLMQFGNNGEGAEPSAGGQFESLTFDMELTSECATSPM

Compound | IC50
O=C(Nc1ccc(C2CCCCC2)cc1)c1nc(-c2ccccc2)oc1Cc1ccc(OP(=O)(O)O)cc1 | 33 µM
CCCCCCNC(=O)c1nc(-c2cccc3ccccc23)sc1Cc1ccc(OP(=O)(O)O)cc1 | 25 µM
CCCCCCNC(=O)c1nc(-c2ccccc2)sc1Cc1ccc(OP(=O)(O)O)cc1 | 150 µM
O=C(O)c1nc(-c2ccccc2)oc1Cc1ccc(OP(=O)(O)O)cc1 | > 1000 µM
CCCCCCNC(=O)c1nc(-c2cccc3ccccc23)oc1Cc1ccc(OP(=O)(O)O)cc1 | 58 µM
O=C(Nc1ccc(C2CCCCC2)cc1)c1nc(-c2ccccc2)sc1Cc1ccc(OP(=O)(O)O)cc1 | 775 µM
O=C(Nc1ccc(C2CCCCC2)cc1)c1nc(-c2cccc3ccccc23)oc1Cc1ccc(OP(=O)(O)O)cc1 | 255 µM
O=C(Nc1ccc(C2CCCCC2)cc1)c1nc(-c2ccccc2)oc1Cc1ccc(O)cc1 | > 1000 µM
CCCCCCNC(=O)c1nc(-c2ccccc2)oc1Cc1ccc(OP(=O)(O)O)cc1 | > 1000 µM
O=C(Nc1ccc(C2CCCCC2)cc1)c1nc(-c2cccc3ccccc23)sc1Cc1ccc(OP(=O)(O)O)cc1 | 350 µM
